# Source: patent US10953237B2, “Methods of providing skin care using phototherapy” (InDerm, priority 2015, dated 2021)
# System: human epidermal keratinocytes
# Experiment: Wound repair (scratch wound closure) in keratinocyte culture
# Type: cell-based
# Protocol: The cells were cultured in a 24-well box (20 to 30 000 cells per well). At confluence, a “wound” was made at the center of the well using an “Essen Woundmaker” (Essen Bioscience, Ann Arbor, USA). After rinsing the wells with PBS to remove detached cells, the optional test agent was applied and illumination was started.
# Cell migration was followed by two types of instrumentation, (i) videomicroscopy or (ii) Incucyte (Essen Bioscience): whereby a photo from the culture well is recorded every 30 minutes or every hour over a period of 48 hours.
# Healing of wounds was studied by dynamic microscopy using a Nikon Eclipse Ti microscope allowing the taking of pictures at intervals of 30 minutes for 24 hours on primary cultures of human fibroblasts and keratinocytes. In this way, it was possible to assess the level of healing.
# Incucyte is a device for visualizing and quantifying cell migration in a CO2 incubator at 37° C. The device is used with the Essen Woundmaker. The equipment was calibrated to produce wounds in cell cultures with high reproducibility. The device featured integrated processing software acquisition and image analysis allowing for quantification of the migration rate of cells.
# The setup of this experiment was as described in the Materials and Methods Section herein above. […]
compound,measurement,setting,value
"CCCCCCCCCCCCCCCC(=O)O[C@@H]1C[C@@H](C(=O)O)N(C(=O)CCCCCCCCCCCCCCC)C1 [DPHP, Dipalmitoylhydroxyproline]",effect on skin wound repair,"DPHP serum in combination with 3-LED lighting, keratinocytes (FIG. 4)",positive effect
same,time to 45% wound closure,"serum (0.175 wt. % DPHP) added at 0.05 wt % of medium, with 3 LEDs 520, 660, 780 nm for 15 seconds, instead of 10 hrs",6 h
